Assay results: ChEMBL document CHEMBL1150658, “New ent-kaurane diterpenoids with anti-platelet aggregation activity from Annona squamosa” (2002)

How the values were obtained:
Assay type in all cases: functional
Details in all cases: Oryctolagus cuniculus
[1] = Antiplatelet activity against washed rabbit platelet assessed as inhibition of platelet activating factor-induced platelet aggregation at 200 uM
[2] = Antiplatelet activity against washed rabbit platelet assessed as inhibition of arachidonic acid-induced platelet aggregation at 200 uM
[3] = Antiplatelet activity against washed rabbit platelet assessed as inhibition of collagen-induced platelet aggregation at 200 uM
[4] = Antiplatelet activity against washed rabbit platelet assessed as inhibition of thrombin-induced platelet aggregation at 200 uM

Compound | inhibition at 200 µM [1] | inhibition at 200 µM [2] | inhibition at 200 µM [3] | inhibition at 200 µM [4]
C[C@@]12CCC[C@@](C)(C(=O)O)[C@H]1CC[C@]13C[C@@H](CO)[C@H](CC[C@H]12)C3 | 7.4% | 4.1% | 23.8% | 2.8%
C[C@@]12CCC[C@@](C)(C(=O)O)[C@H]1CC[C@@]13C[C@@H](CC[C@H]12)[C@](O)(CO)C3 | 14.4% | 14.9% | 8.6% | 6.8%
C[C@@]12CCC[C@@](C)(O)[C@H]1CC[C@@]13C[C@@H](CC[C@H]12)[C@@H](C(=O)O)C3 | 13.3% | 4.5% | 30.5% | 2%
C[C@@]12CCC[C@@](C)(C(=O)O)[C@H]1CC[C@@]13C[C@@H](CC[C@H]12)[C@H](C(=O)O)C3 | 15.2% | 15.4% | 56.9% | 6%
C[C@@]12CCC[C@@](C)(C(=O)O)[C@H]1CC[C@@]13C[C@H](CC[C@H]12)[C@@](O)(CO)C3 | 8.9% | 7.2% | 2.3% | 0.4%
CC(=O)OC[C@]1(O)C[C@@]23CC[C@H]4[C@@](C)(CCC[C@@]4(C)C(=O)O)[C@@H]2CC[C@H]1C3 | 11.1% | 10.8% | 30.1% | 8%
C[C@@]12CCC[C@@](C)(C=O)[C@H]1CC[C@@]13C[C@@H](CC[C@H]12)[C@@](O)(CO)C3 | 10.3% | 0.5% | 4.9% | 3.2%
C[C@@]12CCC[C@@](C)(C=O)[C@H]1CC[C@@]13C[C@@H](CC[C@H]12)[C@@H](C(=O)O)C3 | 11.8% | 100% | 100% | 6.8%
C[C@@]12CCC[C@@](C)(C=O)[C@H]1CC[C@@]13C[C@@H](CC[C@H]12)[C@](O)(CO)C3 | 5.5% | 9.6% | 17.6% | 0%
C[C@@]12CCC[C@@](C)(O)[C@H]1CC[C@@]13C[C@H](CC[C@H]12)[C@](O)(CO)C3 [ANNOSQUAMOSIN B] | 8.5% | 8.7% | 21.1% | 1.6%
CC(=O)O[C@@]1(CO)C[C@@]23CC[C@H]4[C@@](C)(CCC[C@@]4(C)O)[C@@H]2CC[C@@H]1C3 [ANNOSQUAMOSIN D] | 9.3% | 4.9% | 10.6% | 2%
C=C1C[C@@]23CC[C@H]4[C@@](C)(CCC[C@@]4(C)C(=O)O)[C@@H]2CC[C@@H]1C3 [KAURENOIC ACID] | 12.6% | 24.8% | 100% | 5.6%
